The results in this text go back to ChEMBL document CHEMBL4334438, “Discovery of novel glycogen synthase kinase-3α inhibitors: Structure-based virtual screening, preliminary SAR and biological evaluation for treatment of acute myeloid leukemia” (Eur J Med Chem, 2019).

Assay [1] deals with Activated CDC42 kinase 1 (Homo sapiens) (UniProt Q07912). The experiment in a line: Inhibition of human ACK1 (1 to 389 residues) assessed as residual activity at 1 uM using EFPIYDFLPAKKK as substrate incubated for 40 mins in presence of [gamma-33ATP] by scintillation counting based radiometry assay relative to control.
The target in assay [2] is CDC7/Cyclin B1 (Homo sapiens) (UniProt P14635+O00311). In words: Inhibition of recombinant full length human CDC7/CyclinB1 assessed as residual activity at 1 uM using Histone H1 as substrate incubated for 120 mins in presence of [gamma-33ATP] by scintillation counting based radiometry assay relative to control. Format: protein-complex assay.
Assay [3] addresses CDK3/Cyclin E (Homo sapiens) (UniProt P24864+Q00526). The experiment in a line: Inhibition of recombinant full length human CDK3/CyclinE assessed as residual activity at 1 uM using Histone H1 as substrate incubated for 40 mins in presence of [gamma-33ATP] by scintillation counting based radiometry assay relative to control. Format: protein-complex assay.
For assay [4], the target named is Cyclin-dependent kinase 5/CDK5 activator 1 (Homo sapiens) (UniProt Q00535+Q15078). In words: Inhibition of recombinant full length human CDK5/p35 assessed as residual activity at 1 uM using histone H1 as substrate incubated for 40 mins in presence of [gamma-33ATP] by scintillation counting based radiometry assay relative to control. Format: protein-complex assay.

For assay [5], the target named is CDK12/Cyclin K (Homo sapiens) (UniProt O75909+Q9NYV4). The experiment in a line: Inhibition of recombinant full length human CDK12/cyclinK assessed as residual activity at 1 uM using RSRSRSRSRSRSRSR as substrate incubated for 120 mins in presence of [gamma-33ATP] by scintillation counting based radiometry assay relative to control. Format: protein-complex assay.

In assay [6] the target is Casein kinase II subunit alpha (Homo sapiens) (UniProt P68400). In words: Inhibition of recombinant full length human CK2alpha1 assessed as residual activity at 1 uM using RRRDDDSDDD as substrate incubated 40 mins in presence of [gamma-33ATP] by scintillation counting based radiometry assay relative to control.
In assay [7] the test system is Mast/stem cell growth factor receptor Kit (Homo sapiens), P10721 [V654A]. In words: Inhibition of recombinant human C-Kit V654A mutant (544 to end residues) assessed as residual activity at 1 uM poly(Glu, Tyr) 4:1 as substrate incubated 40 mins in presence of [gamma-33ATP] by scintillation counting based radiometry assay relative to control.
The target of assay [8] is Ephrin type-B receptor 3 (Homo sapiens) (UniProt P54753). The experiment in a line: Inhibition of recombinant human EphB3 (599 to 920 residues) assessed as residual activity at 1 uM using poly(Glu, Tyr) 4:1 as substrate at 40 mins in presence of [gamma-33ATP] by scintillation counting based radiometry assay relative to control.
Assay [9] addresses Tyrosine-protein kinase HCK (Homo sapiens) (UniProt P08631). The experiment in a line: Inhibition of human HCK activated (230 to 497 residues) assessed as residual activity at 1 uM using GGMEDIYFEFMGGKKK as substrate after 40 mins by [gamma-33ATP] radiometric assay relative to control.
Assay [10] deals with Tyrosine-protein kinase JAK1 (Homo sapiens) (UniProt P23458). In words: Inhibition of human JAK1 (866 to end residues) assessed as residual activity at 1 uM using GEEPLYWSFPAKKK as substrate after 40 mins by [gamma-33ATP] radiometric assay relative to control.
The target in assay [11] is Mitogen-activated protein kinase 10 (Homo sapiens) (UniProt P53779). In words: Inhibition of human JNK3 assessed as residual activity at 1 uM using peptide as substrate after 40 mins by [gamma-33ATP] radiometric assay relative to control.
Assay [12] addresses Mitogen-activated protein kinase kinase kinase kinase 4 (Homo sapiens) (UniProt O95819). The experiment in a line: Inhibition of recombinant human MAP4K4 (1 to 328 residues) assessed as residual activity at 1 uM using RLGRDKYKTLRQIRQ as substrate incubated for 40 mins in presence of [gamma-33ATP by scintillation counting based radiometry assay relative to control.
Assay [13] concerns the target [Pyruvate dehydrogenase (acetyl-transferring)] kinase isozyme 2, mitochondrial (Homo sapiens) (UniProt Q15119). The experiment in a line: Inhibition of human PDHK2 assessed as residual activity at 1 uM by radiometric method.
Assay [14] has as its target Protein kinase C alpha type (Homo sapiens) (UniProt P17252). The experiment in a line: Inhibition of recombinant human full length PKCalpha assessed as residual activity at 1 uM using histone H1 as substrate measured after 40 mins in presence of [gamma33P]ATP by scintillation counting method relative to control.
The target in assay [15] is cGMP-dependent protein kinase 2 (Homo sapiens) (UniProt Q13237). The experiment in a line: Inhibition of recombinant full-length human PRKG2 assessed as residual activity at 1 uM using KKLRRTLSFAEPG as substrate measured after 40 mins in presence of [gamma33P]ATP by scintillation counting method relative to control.
Assay [16] has as its system Mitogen-activated protein kinase 14 (Homo sapiens), Q16539 [T106M]. In words: Inhibition of recombinant human full length SAPK2a T106M mutant assessed as residual activity at 1 uM using myelin basic protein as substrate measured after 40 mins in presence of [gamma33P]ATP by scintillation counting method relative to control.
Assay [17] relates to SNF-related serine/threonine-protein kinase (Homo sapiens), Q9NRH2 [UNDEFINED MUTATION]. In words: Inhibition of human SNRK E97G/P116A mutant (65 to 409 residues) assessed as residual activity at 1 uM using KKLRRTLSFAEPG as substrate measured after 40 mins in presence of [gamma33P]ATP by scintillation counting method relative to control.
Assay [18] has as its target Serine/threonine-protein kinase 33 (Homo sapiens) (UniProt Q9BYT3). The experiment in a line: Inhibition of recombinant full-length human STK33 at 1 uM assessed as residual activity at 1 uM using myelin basic protein as substrate measured after 40 mins in presence of [gamma33P]ATP by scintillation counting method relative to control.
For assay [19], the system named is Angiopoietin-1 receptor (Homo sapiens), Q02763 [Q939H,Q940H,R849W]. In words: Inhibition of human Tie2 Q939H/Q940H/R849W mutant (771 to end residues) assessed as residual activity at 1 uM using EFPIYDFLPAKKK as substrate measured after 40 mins in presence of [gamma33P]ATP by scintillation counting method relative to control.
In assay [20] the target is Serine/threonine-protein kinase WNK1 (Homo sapiens) (UniProt Q9H4A3). The experiment in a line: Inhibition of human WNK1 (1 to 491 residues) assessed as residual activity at 1 uM using myelin basic protein as substrate measured after 120 mins in presence of [gamma33P]ATP by scintillation counting method relative to control.
The target of assay [21] is Phosphatidylinositol 4-phosphate 3-kinase C2 domain-containing subunit alpha (Homo sapiens) (UniProt O00443). The experiment in a line: Inhibition of recombinant human PI3KC2alpha (299 to end residues) at 1 uM assessed as residual activity at 1 uM using phosphatidylinositol as substrate measured after 40 mins by HTRF assay.
Chain of Phosphatidylinositol 4-phosphate 3-kinase C2 domain-containing subunit alpha (Homo sapiens) (O00443 whole entry, the tested form may be a part): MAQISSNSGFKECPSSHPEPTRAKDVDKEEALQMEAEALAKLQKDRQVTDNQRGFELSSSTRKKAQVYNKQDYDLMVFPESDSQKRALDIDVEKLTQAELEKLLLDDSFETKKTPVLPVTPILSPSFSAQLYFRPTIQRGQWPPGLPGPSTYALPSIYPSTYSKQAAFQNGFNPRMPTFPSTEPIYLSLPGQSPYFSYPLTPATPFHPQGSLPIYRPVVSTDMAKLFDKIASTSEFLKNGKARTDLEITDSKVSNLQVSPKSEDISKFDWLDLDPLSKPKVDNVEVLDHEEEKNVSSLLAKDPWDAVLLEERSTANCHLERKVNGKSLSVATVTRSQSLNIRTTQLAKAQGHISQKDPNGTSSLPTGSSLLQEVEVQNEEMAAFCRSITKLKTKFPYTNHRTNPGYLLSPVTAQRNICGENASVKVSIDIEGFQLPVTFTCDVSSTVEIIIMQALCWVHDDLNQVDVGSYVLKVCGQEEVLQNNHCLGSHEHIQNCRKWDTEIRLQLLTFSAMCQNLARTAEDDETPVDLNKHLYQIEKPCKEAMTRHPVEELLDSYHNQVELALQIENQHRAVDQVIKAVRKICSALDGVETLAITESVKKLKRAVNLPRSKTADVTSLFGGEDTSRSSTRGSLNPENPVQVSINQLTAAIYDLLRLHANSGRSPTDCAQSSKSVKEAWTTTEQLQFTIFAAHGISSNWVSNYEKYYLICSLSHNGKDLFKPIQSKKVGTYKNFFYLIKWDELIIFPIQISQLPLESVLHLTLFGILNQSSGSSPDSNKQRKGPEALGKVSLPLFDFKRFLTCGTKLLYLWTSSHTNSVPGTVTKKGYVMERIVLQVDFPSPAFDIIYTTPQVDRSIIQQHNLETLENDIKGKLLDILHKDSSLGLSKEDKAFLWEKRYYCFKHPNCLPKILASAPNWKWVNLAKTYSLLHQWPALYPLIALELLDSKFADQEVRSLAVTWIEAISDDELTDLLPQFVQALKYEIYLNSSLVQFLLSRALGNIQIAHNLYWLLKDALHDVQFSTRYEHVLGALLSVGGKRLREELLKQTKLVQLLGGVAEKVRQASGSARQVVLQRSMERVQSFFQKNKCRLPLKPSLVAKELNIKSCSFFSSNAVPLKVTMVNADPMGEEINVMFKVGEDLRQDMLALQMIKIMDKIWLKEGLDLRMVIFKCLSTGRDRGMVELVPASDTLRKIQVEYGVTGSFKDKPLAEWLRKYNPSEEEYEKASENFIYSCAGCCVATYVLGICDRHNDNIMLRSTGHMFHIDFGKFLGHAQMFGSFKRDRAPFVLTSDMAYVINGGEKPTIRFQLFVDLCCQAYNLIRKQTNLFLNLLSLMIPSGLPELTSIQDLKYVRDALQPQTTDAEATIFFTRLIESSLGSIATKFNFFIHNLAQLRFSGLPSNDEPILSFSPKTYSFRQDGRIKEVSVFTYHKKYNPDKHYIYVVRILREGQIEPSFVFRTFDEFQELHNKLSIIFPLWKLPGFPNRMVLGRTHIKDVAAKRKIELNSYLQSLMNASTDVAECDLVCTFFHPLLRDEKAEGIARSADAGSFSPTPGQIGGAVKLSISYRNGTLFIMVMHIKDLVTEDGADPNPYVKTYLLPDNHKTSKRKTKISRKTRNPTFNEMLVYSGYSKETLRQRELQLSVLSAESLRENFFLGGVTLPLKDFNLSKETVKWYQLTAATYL

Chain of cGMP-dependent protein kinase 2 (Homo sapiens) (Q13237 whole entry): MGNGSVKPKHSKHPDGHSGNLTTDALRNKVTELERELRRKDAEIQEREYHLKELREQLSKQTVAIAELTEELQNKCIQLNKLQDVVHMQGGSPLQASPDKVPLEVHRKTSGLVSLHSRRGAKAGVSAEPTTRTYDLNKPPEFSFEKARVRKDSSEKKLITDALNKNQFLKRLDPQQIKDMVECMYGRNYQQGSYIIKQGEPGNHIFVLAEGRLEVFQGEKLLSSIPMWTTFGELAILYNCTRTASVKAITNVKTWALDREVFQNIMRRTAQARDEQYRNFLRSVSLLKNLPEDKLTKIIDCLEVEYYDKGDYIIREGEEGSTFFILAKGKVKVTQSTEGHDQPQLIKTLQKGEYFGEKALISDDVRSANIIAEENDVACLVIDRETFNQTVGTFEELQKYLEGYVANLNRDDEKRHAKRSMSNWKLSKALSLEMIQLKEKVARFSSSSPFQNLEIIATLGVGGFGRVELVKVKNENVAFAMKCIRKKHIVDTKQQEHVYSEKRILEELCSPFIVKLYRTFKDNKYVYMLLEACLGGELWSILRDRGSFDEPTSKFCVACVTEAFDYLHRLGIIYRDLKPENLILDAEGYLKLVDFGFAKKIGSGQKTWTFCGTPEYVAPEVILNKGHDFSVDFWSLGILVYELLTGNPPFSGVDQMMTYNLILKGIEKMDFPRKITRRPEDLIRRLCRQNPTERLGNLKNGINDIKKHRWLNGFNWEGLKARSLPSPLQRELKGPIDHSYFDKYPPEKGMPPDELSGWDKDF
Chain of Tyrosine-protein kinase JAK1 (Homo sapiens) (P23458 whole entry): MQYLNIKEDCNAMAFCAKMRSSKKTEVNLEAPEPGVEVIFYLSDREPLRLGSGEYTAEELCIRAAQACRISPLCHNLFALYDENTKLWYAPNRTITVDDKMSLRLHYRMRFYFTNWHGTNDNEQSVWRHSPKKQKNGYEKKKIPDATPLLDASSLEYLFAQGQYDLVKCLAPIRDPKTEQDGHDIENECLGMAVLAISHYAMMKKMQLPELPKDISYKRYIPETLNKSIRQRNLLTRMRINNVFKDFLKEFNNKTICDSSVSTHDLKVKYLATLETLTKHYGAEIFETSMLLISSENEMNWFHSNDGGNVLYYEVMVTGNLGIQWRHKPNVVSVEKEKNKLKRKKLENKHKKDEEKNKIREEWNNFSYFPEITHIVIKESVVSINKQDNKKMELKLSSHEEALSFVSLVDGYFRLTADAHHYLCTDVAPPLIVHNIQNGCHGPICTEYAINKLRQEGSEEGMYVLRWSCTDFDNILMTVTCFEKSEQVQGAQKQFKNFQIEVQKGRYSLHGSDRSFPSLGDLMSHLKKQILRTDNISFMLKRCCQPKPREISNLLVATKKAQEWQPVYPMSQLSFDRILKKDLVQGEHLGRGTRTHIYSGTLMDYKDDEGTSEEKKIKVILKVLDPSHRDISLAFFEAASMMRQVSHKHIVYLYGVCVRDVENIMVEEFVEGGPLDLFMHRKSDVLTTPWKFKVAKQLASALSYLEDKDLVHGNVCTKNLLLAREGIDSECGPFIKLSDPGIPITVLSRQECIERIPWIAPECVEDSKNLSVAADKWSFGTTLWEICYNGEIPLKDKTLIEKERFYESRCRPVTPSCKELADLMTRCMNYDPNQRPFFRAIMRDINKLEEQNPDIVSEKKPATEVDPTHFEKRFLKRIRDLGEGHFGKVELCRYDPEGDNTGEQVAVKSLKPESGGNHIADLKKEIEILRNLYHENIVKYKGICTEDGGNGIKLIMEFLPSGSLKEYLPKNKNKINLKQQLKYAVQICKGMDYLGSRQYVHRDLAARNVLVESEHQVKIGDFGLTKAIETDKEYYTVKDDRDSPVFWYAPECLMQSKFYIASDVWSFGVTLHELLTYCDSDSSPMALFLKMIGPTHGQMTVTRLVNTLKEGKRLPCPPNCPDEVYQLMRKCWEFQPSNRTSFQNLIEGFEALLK
Chain of Casein kinase II subunit alpha (Homo sapiens) (P68400 whole entry, looked up): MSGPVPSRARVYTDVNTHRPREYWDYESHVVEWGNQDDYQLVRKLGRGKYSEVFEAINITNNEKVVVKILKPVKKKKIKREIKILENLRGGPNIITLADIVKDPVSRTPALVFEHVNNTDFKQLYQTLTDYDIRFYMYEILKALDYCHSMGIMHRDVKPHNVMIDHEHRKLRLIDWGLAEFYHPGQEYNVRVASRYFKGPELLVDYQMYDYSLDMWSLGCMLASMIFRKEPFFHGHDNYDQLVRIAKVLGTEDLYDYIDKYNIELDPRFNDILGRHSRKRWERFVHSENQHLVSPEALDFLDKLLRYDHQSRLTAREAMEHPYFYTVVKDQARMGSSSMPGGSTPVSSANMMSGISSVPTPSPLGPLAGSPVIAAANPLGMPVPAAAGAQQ
Chain of Mitogen-activated protein kinase 14 (Homo sapiens), Q16539 [T106M] (Q16539 whole entry T106M, the tested form may be a part): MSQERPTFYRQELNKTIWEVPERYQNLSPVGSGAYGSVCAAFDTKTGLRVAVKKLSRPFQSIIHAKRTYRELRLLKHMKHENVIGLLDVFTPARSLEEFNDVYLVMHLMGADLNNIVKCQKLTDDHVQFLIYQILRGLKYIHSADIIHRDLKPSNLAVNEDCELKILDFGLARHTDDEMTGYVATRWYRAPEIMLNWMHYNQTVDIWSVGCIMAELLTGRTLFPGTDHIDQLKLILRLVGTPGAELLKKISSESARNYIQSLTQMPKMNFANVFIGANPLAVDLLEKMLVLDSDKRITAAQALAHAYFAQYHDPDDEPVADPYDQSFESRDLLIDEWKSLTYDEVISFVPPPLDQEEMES
Chain of Mitogen-activated protein kinase 10 (Homo sapiens) (P53779 whole entry, the tested form may be a part): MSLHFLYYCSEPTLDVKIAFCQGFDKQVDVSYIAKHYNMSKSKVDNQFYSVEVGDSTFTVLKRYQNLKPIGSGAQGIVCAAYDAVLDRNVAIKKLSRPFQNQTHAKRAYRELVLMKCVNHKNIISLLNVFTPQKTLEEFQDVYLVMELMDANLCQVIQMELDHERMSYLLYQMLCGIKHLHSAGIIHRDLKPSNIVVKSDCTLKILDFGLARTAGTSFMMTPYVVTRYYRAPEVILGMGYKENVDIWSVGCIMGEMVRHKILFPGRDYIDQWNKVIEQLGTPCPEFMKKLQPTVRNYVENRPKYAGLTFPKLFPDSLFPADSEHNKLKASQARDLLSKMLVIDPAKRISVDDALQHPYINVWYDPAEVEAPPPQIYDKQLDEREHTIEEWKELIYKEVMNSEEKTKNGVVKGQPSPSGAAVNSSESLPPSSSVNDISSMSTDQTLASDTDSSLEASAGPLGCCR

Regarding `N=C1NC(=O)/C(=C\c2ccc(-c3cccc([N+](=O)[O-])c3)o2)S1`, the Activity in [1] came to 93%; in assay [2] it was 82%; in assay [3] it was 80%; in assay [4], 53%; in assay [5], 98%; in [6] it was 57%. For the same compound, the Activity in assay [7] amounted to 108%; in assay [8] it was 106%; in [9], 80%; in [10], 96%; in assay [11] it was 112%; in [12], 82%. Besides, the Activity was determined as 102% in assay [13]; 97% in [14]; 51% in [15]; 80% in assay [16]; 110% in [17]; 88% in [18]. Besides, the results for the Activity in assay [19], in assay [20] and in assay [21] were 91%, 97% and 100%, respectively.
For `C=CCOC(=O)c1cc(-c2ccc(/C=C3/NC(=S)NC3=O)o2)ccc1Cl`, the Activity in [1] stood at 96%; in [2], 93%; in [3], 88%; in assay [4], 73%; in [5], 96%; in assay [6], 59%. Besides, the Activity in assay [7] was determined as 95%; in assay [8], 104%; in assay [9] it was 103%; in [10], 106%; in assay [11], 100%; in assay [12], 95%. Moreover, the Activity in assay [13] came out at 107%; in assay [14] it was 96%; in assay [15], 94%; in assay [16], 100%; in [17], 83%; in assay [18] it was 96%. Besides, the Activity in assay [19] came to 105%; in [20], 94%; in assay [21] it was 87%.
